Reference: PMC6874179, “Development of Macrocycle Kinase Inhibitors for ALK2 Using Fibrodysplasia Ossificans Progressiva‐Derived Endothelial Cells” (JBMR Plus, 2019)

Legend:
RIPK2 = target: T1, RIPK2 (Homo sapiens, UniProt O43353); assay: Proqinase Kinase profiling; format: biochemical; details: read-out: % inhibition at 100nM
T1 construct: purchased DiscoverX

GSG2 = target: T2, GSG2 (Homo sapiens, UniProt Q8TF76); assay: Proqinase Kinase profiling; format: biochemical; details: read-out: % inhibition at 100nM
T2 construct: purchased DiscoverX

FLT3_ITD = assay: Proqinase Kinase profiling; format: biochemical
LRRK2_R1441C = target: T3, LRRK2_R1441C (Homo sapiens, UniProt Q5S007, R1441C); assay: Proqinase Kinase profiling; format: biochemical; details: read-out: % inhibition at 100nM
T3 construct: purchased DiscoverX

IRAK1 = target: T4, IRAK1 (Homo sapiens, UniProt P51617); assay: Proqinase Kinase profiling; format: biochemical; details: read-out: % inhibition at 100nM
T4 construct: purchased DiscoverX

TLK1 = target: T5, TLK1 (Homo sapiens, UniProt Q9UKI8); assay: Proqinase Kinase profiling; format: biochemical; details: read-out: % inhibition at 100nM
T5 construct: purchased DiscoverX

DAPK3 = target: T6, DAPK3 (Homo sapiens, UniProt O43293); assay: Proqinase Kinase profiling; format: biochemical; details: read-out: % inhibition at 100nM
T6 construct: purchased DiscoverX

LRRK2 = target: T7, LRRK2 (Homo sapiens, UniProt Q5S007); assay: Proqinase Kinase profiling; format: biochemical; details: read-out: % inhibition at 100nM
T7 construct: purchased DiscoverX

ALK = target: T8, ALK (Homo sapiens, UniProt Q9UM73); assay: Proqinase Kinase profiling; format: biochemical; details: read-out: % inhibition at 100nM
T8 construct: purchased DiscoverX

ABL1_Y253F = target: T9, ABL1_Y253F (Homo sapiens, UniProt P00519, Y253F); assay: Proqinase Kinase profiling; format: biochemical; details: read-out: % inhibition at 100nM
T9 construct: purchased DiscoverX

ABL1_E255K = target: T10, ABL1_E255K (Homo sapiens, UniProt P00519, E255K); assay: Proqinase Kinase profiling; format: biochemical; details: read-out: % inhibition at 100nM
T10 construct: purchased DiscoverX

MAP2K2 = target: T11, MAP2K2 (Homo sapiens, UniProt P36507); assay: Proqinase Kinase profiling; format: biochemical; details: read-out: % inhibition at 100nM
T11 construct: purchased DiscoverX

PKN1 = target: T12, PKN1 (Homo sapiens, UniProt Q16512); assay: Proqinase Kinase profiling; format: biochemical; details: read-out: % inhibition at 100nM
T12 construct: purchased DiscoverX

CDK2_cyclinE = target: T13, CDK2_cyclinE (Homo sapiens, UniProt P24941); assay: Proqinase Kinase profiling; format: biochemical; details: read-out: % inhibition at 100nM
T13 construct: purchased DiscoverX

CSNK1G2 = target: T14, CSNK1G2 (Homo sapiens, UniProt P78368); assay: Proqinase Kinase profiling; format: biochemical; details: read-out: % inhibition at 100nM
T14 construct: purchased DiscoverX

TGFbR1 = target: T15, TGFbR1 (Homo sapiens, UniProt P36897); assay: Proqinase Kinase profiling; format: biochemical; details: read-out: % inhibition at 100nM
T15 construct: purchased DiscoverX

PAK6 = target: T16, PAK6 (Homo sapiens, UniProt Q9NQU5); assay: Proqinase Kinase profiling; format: biochemical; details: read-out: % inhibition at 100nM
T16 construct: purchased DiscoverX

PDGFRB = target: T17, PDGFRB (Homo sapiens, UniProt P09619); assay: Proqinase Kinase profiling; format: biochemical; details: read-out: % inhibition at 100nM
T17 construct: purchased DiscoverX

AKT3 = target: T18, AKT3 (Homo sapiens, UniProt Q9Y243); assay: Proqinase Kinase profiling; format: biochemical; details: read-out: % inhibition at 100nM
T18 construct: purchased DiscoverX

HIPK1 = target: T19, HIPK1 (Homo sapiens, UniProt Q86Z02); assay: Proqinase Kinase profiling; format: biochemical; details: read-out: % inhibition at 100nM
T19 construct: purchased DiscoverX
T19 sequence (Q86Z02 whole entry): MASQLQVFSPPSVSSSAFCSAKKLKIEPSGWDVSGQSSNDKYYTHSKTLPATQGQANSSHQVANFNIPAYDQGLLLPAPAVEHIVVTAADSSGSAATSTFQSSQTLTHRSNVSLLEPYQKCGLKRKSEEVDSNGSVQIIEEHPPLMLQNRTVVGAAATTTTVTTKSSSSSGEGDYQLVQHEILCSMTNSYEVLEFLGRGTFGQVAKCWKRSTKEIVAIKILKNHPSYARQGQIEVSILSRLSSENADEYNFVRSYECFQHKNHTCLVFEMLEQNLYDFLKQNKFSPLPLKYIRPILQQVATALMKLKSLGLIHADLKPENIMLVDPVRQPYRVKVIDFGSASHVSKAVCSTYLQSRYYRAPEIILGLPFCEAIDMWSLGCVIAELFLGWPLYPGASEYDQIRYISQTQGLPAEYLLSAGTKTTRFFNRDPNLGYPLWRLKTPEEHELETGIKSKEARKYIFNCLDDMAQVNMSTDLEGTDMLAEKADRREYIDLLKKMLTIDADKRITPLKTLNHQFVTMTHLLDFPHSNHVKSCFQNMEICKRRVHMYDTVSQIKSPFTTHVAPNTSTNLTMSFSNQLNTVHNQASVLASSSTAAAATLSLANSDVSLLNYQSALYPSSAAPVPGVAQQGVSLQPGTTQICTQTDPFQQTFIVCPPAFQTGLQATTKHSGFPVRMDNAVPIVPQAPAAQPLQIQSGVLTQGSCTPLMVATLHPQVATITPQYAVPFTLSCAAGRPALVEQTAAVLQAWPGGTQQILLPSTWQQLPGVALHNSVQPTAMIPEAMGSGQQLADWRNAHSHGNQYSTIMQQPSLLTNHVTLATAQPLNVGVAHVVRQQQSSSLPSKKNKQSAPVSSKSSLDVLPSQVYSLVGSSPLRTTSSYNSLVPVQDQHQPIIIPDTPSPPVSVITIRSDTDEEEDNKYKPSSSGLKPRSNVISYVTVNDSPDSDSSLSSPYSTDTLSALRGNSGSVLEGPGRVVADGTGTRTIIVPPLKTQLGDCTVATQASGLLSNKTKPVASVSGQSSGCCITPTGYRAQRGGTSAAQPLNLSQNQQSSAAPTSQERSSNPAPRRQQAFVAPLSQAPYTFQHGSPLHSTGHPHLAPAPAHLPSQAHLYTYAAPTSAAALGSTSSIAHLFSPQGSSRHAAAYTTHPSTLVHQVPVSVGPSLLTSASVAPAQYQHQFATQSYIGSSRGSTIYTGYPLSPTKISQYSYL

PRKCQ = target: T20, PRKCQ (Homo sapiens, UniProt Q04759); assay: Proqinase Kinase profiling; format: biochemical; details: read-out: % inhibition at 100nM
T20 construct: purchased DiscoverX

MAP3K10 = target: T21, MAP3K10 (Homo sapiens, UniProt Q02779); assay: Proqinase Kinase profiling; format: biochemical; details: read-out: % inhibition at 100nM
T21 construct: purchased DiscoverX

CDC42BPA = target: T22, CDC42BPA (Homo sapiens, UniProt Q5VT25); assay: Proqinase Kinase profiling; format: biochemical; details: read-out: % inhibition at 100nM
T22 construct: purchased DiscoverX
T22 sequence (Q5VT25 whole entry): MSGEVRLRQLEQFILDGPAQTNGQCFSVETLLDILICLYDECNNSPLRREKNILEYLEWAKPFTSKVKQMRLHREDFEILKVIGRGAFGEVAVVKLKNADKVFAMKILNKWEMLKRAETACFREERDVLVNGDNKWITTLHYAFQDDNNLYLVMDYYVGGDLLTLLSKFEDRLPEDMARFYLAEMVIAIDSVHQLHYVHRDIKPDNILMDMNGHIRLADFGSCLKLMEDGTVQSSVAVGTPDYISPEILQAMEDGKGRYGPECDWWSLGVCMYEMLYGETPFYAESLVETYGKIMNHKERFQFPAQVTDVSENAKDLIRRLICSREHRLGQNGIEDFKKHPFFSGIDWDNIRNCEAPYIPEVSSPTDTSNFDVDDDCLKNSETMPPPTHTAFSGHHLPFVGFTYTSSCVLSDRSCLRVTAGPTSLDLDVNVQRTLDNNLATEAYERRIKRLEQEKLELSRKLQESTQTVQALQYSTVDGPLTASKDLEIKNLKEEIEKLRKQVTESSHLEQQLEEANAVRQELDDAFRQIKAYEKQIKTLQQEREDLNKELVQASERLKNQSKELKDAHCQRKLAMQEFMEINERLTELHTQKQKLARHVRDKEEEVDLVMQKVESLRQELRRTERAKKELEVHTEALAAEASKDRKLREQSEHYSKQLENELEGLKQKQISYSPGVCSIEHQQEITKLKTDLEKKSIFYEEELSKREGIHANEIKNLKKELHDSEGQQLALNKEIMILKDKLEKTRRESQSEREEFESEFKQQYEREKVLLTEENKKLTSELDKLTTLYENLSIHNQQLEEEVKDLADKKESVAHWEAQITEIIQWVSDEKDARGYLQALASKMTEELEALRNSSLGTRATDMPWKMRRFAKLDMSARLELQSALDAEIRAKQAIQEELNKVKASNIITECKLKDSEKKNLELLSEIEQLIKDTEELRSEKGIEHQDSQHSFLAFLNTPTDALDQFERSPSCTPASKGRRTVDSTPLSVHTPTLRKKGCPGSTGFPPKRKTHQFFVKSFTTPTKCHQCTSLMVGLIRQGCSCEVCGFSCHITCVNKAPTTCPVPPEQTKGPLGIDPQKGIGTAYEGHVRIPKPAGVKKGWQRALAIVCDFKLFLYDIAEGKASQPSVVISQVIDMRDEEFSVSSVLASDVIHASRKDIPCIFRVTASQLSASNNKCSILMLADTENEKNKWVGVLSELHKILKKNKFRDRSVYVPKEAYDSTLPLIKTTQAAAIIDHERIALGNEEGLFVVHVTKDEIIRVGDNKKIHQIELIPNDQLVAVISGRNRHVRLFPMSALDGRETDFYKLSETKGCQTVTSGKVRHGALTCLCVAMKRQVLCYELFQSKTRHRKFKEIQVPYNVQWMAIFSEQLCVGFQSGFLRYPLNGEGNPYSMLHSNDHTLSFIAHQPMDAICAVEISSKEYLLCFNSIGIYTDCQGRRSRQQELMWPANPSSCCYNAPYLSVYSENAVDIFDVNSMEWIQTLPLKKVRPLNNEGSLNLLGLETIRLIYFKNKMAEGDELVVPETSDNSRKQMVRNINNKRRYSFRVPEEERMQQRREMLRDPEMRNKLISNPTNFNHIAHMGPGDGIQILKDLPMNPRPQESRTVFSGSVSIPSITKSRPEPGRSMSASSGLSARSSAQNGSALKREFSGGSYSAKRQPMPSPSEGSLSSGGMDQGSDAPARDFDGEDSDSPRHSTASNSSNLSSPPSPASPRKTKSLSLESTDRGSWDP

FLT1 = target: T23, FLT1 (Homo sapiens, UniProt P17948); assay: Proqinase Kinase profiling; format: biochemical; details: read-out: % inhibition at 100nM
T23 construct: purchased DiscoverX

TSSK1B = target: T24, TSSK1B (Homo sapiens, UniProt Q9BXA7); assay: Proqinase Kinase profiling; format: biochemical; details: read-out: % inhibition at 100nM
T24 construct: purchased DiscoverX

CDK7_cyclinH_MAT1 = target: T25, CDK7_cyclinH_MAT1 (Homo sapiens, UniProt P50613); assay: Proqinase Kinase profiling; format: biochemical; details: read-out: % inhibition at 100nM
T25 construct: purchased DiscoverX

JAK1 = target: T26, JAK1 (Homo sapiens, UniProt P23458); assay: Proqinase Kinase profiling; format: biochemical; details: read-out: % inhibition at 100nM
T26 construct: purchased DiscoverX
T26 sequence (P23458 whole entry): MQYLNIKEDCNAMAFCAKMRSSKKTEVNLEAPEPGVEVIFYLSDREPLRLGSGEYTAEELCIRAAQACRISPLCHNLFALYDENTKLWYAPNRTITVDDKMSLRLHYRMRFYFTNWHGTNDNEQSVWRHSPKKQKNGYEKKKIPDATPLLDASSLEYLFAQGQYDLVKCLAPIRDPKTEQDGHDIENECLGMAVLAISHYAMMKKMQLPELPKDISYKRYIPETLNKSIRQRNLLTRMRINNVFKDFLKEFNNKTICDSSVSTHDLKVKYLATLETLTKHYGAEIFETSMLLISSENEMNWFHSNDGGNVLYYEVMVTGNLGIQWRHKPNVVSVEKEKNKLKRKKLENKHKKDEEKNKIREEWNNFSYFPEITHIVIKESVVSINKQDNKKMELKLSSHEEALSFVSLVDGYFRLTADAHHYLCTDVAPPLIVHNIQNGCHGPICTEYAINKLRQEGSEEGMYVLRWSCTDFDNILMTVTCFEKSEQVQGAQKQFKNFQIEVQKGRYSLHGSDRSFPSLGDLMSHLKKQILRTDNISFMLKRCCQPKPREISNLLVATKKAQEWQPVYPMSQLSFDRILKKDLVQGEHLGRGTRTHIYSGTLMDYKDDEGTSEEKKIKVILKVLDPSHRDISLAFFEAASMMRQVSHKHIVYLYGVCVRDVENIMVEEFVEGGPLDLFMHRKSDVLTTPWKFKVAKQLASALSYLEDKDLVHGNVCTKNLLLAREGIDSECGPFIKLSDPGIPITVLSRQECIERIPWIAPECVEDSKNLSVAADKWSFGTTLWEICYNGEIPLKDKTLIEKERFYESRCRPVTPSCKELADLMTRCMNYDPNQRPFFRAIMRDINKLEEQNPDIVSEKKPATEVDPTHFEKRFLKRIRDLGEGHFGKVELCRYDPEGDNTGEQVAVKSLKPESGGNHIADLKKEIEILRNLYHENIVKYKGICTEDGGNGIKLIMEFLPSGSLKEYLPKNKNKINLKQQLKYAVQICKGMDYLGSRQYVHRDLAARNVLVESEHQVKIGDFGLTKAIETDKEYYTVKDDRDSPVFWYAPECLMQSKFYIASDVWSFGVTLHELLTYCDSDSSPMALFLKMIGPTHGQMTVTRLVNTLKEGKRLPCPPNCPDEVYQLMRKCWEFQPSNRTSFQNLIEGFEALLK

CDK9_cyclinK = target: T27, CDK9_cyclinK (Homo sapiens, UniProt P50750); assay: Proqinase Kinase profiling; format: biochemical; details: read-out: % inhibition at 100nM
T27 construct: purchased DiscoverX

CAMKK1 = target: T28, CAMKK1 (Homo sapiens, UniProt Q8N5S9); assay: Proqinase Kinase profiling; format: biochemical; details: read-out: % inhibition at 100nM
T28 construct: purchased DiscoverX

FGFR3_G697C = target: T29, FGFR3_G697C (Homo sapiens, UniProt P22607, G697C); assay: Proqinase Kinase profiling; format: biochemical; details: read-out: % inhibition at 100nM
T29 construct: purchased DiscoverX

MAPK12 = target: T30, MAPK12 (Homo sapiens, UniProt P53778); assay: Proqinase Kinase profiling; format: biochemical; details: read-out: % inhibition at 100nM
T30 construct: purchased DiscoverX

PRKG2 = target: T31, PRKG2 (Homo sapiens, UniProt Q13237); assay: Proqinase Kinase profiling; format: biochemical; details: read-out: % inhibition at 100nM
T31 construct: purchased DiscoverX

PRKAA1 = target: T32, PRKAA1 (Homo sapiens, UniProt Q13131); assay: Proqinase Kinase profiling; format: biochemical; details: read-out: % inhibition at 100nM
T32 construct: purchased DiscoverX

PDGFRA = target: T33, PDGFRA (Homo sapiens, UniProt P16234); assay: Proqinase Kinase profiling; format: biochemical; details: read-out: % inhibition at 100nM
T33 construct: purchased DiscoverX

ZAP70 = target: T34, ZAP70 (Homo sapiens, UniProt P43403); assay: Proqinase Kinase profiling; format: biochemical; details: read-out: % inhibition at 100nM
T34 construct: purchased DiscoverX

PRKCI = target: T35, PRKCI (Homo sapiens, UniProt P41743); assay: Proqinase Kinase profiling; format: biochemical; details: read-out: % inhibition at 100nM
T35 construct: purchased DiscoverX

FLT3 = target: T36, FLT3 (Homo sapiens, UniProt P36888); assay: Proqinase Kinase profiling; format: biochemical; details: read-out: % inhibition at 100nM
T36 construct: purchased DiscoverX
T36 sequence (P36888 27-993): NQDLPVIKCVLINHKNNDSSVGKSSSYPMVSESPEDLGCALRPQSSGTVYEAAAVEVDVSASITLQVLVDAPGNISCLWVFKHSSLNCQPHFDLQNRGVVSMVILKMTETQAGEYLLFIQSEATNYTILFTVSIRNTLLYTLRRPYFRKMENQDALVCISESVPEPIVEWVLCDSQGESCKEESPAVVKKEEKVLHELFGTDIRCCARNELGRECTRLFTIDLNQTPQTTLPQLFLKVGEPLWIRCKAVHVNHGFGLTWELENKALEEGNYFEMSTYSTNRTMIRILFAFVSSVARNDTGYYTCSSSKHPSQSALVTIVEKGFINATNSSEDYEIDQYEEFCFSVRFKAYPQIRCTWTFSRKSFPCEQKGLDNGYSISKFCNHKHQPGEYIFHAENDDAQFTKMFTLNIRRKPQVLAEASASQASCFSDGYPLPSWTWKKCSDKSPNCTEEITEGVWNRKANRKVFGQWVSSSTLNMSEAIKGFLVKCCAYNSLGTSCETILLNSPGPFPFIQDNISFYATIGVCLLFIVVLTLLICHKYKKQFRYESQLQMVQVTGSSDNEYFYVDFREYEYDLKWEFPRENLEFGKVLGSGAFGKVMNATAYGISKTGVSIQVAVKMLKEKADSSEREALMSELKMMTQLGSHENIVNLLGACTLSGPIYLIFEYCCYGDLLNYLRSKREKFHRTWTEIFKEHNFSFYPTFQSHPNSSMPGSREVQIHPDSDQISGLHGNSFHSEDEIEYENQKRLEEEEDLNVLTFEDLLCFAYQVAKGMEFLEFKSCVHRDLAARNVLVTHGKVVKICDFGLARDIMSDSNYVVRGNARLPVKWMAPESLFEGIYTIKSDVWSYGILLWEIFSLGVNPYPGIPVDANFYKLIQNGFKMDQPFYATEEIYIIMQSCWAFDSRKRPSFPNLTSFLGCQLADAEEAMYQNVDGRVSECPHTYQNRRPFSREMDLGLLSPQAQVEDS

KIT_T670I = target: T37, KIT_T670I (Homo sapiens, UniProt P10721, T670I); assay: Proqinase Kinase profiling; format: biochemical; details: read-out: % inhibition at 100nM
T37 construct: purchased DiscoverX

BMP-6-induced p-Smad1/5 = assay: Western blot of p-Smad1/5 in KS483 cells; format: cell-based, mouse
Experimental: Compounds were added for 16 hours at 0.5μM before luciferase activity was measured.
Cells were seeded into 6-well plates and cultured till they reached confluence. Next, cells were stimulated as indicated and then washed with cold PBS. […] Electrophoresis was performed in 10% SDS/polyacrylamide gels. Separated proteins were transferred to nitrocellulose membranes (0.5 A at 100 V; in ice) for 1 hour. Blots were blocked in Tris-Buffered Saline solution containing 0.1% Tween 20 and 5% non-fat dry milk overnight at 4 °C, and immune-detection of specific proteins was carried out with primary antibodies (see above) followed by horseradish peroxidase-conjugated anti-mouse or anti-rabbit (GE Healthcare, Eindhoven, The Netherlands) secondary antibodies using an ECL system (Fisher Scientific, Landsmeer, The Netherlands).

Structure (SMILES)	inhibition at 0.1 µM (RIPK2)	inhibition at 0.1 µM (GSG2)	% inhibition at 100nM (FLT3_ITD)	inhibition at 0.1 µM (LRRK2_R1441C)	inhibition at 0.1 µM (IRAK1)	inhibition at 0.1 µM (TLK1)	inhibition at 0.1 µM (DAPK3)	inhibition at 0.1 µM (LRRK2)	inhibition at 0.1 µM (ALK)	inhibition at 0.1 µM (ABL1_Y253F)	inhibition at 0.1 µM (ABL1_E255K)	inhibition at 0.1 µM (MAP2K2)	inhibition at 0.1 µM (PKN1)	inhibition at 0.1 µM (CDK2_cyclinE)	inhibition at 0.1 µM (CSNK1G2)	inhibition at 0.1 µM (TGFbR1)	inhibition at 0.1 µM (PAK6)	inhibition at 0.1 µM (PDGFRB)	inhibition at 0.1 µM (AKT3)	inhibition at 0.1 µM (HIPK1)	other results
Clc1cc2cc(c1)-c1cnn3ccc(nc13)NCCOCCO2 [OD36]	97%	50%	36%	56%	9%	17%	16%	53%	6%	3%	-2%	-7%	16%	7%	-3%	5%	1%	57%	-1%	8%	inhibition at 0.1 µM (PRKCQ): 12%; inhibition at 0.1 µM (MAP3K10): 13%; inhibition at 0.1 µM (CDC42BPA): 15%; inhibition at 0.1 µM (FLT1): 20%; inhibition at 0.1 µM (TSSK1B): 9%; inhibition at 0.1 µM (CDK7_cyclinH_MAT1): 0%; inhibition at 0.1 µM (JAK1): 18%; inhibition at 0.1 µM (CDK9_cyclinK): 16%; inhibition at 0.1 µM (CAMKK1): 20%; inhibition at 0.1 µM (FGFR3_G697C): -1%; inhibition at 0.1 µM (MAPK12): 24%; inhibition at 0.1 µM (PRKG2): 14%; inhibition at 0.1 µM (PRKAA1): 21%; inhibition at 0.1 µM (PDGFRA): 29%; inhibition at 0.1 µM (ZAP70): -3%; inhibition at 0.1 µM (PRKCI): 11%; inhibition at 0.1 µM (FLT3): 6%; inhibition at 0.1 µM (KIT_T670I): 9%; Inhibition of BMP-6-induced p-Smad1/5 (BMP-6-induced p-Smad1/5): efficiently inhibited
Cc1cc2cc(c1)-c1cnn3ccc(nc13)NCCNC(=O)CCN(C)C2 [OD52]	61%	20%	19%	16%	16%	16%	11%	10%	8%	7%	7%	7%	5%	5%	4%	4%	4%	3%	2%	0%	inhibition at 0.1 µM (PRKCQ): -2%; inhibition at 0.1 µM (MAP3K10): -3%; inhibition at 0.1 µM (CDC42BPA): -4%; inhibition at 0.1 µM (FLT1): -4%; inhibition at 0.1 µM (TSSK1B): -5%; inhibition at 0.1 µM (CDK7_cyclinH_MAT1): -6%; inhibition at 0.1 µM (JAK1): -6%; inhibition at 0.1 µM (CDK9_cyclinK): -7%; inhibition at 0.1 µM (CAMKK1): -8%; inhibition at 0.1 µM (FGFR3_G697C): -10%; inhibition at 0.1 µM (MAPK12): -10%; inhibition at 0.1 µM (PRKG2): -10%; inhibition at 0.1 µM (PRKAA1): -11%; inhibition at 0.1 µM (PDGFRA): -12%; inhibition at 0.1 µM (ZAP70): -13%; inhibition at 0.1 µM (PRKCI): -17%; inhibition at 0.1 µM (FLT3): -18%; inhibition at 0.1 µM (KIT_T670I): -23%; Inhibition of BMP-6-induced p-Smad1/5 (BMP-6-induced p-Smad1/5): efficiently inhibited
